Results taken from patent publication US9150554B2, “Fused ring inhibitors of hepatitis C” (Presidio Pharmaceuticals, Inc., priority 2009, dated 2015).

These molecules were tested on HCV 1b_Huh-Luc/Neo-ET cell line persistently expressing a bicistronic genotype 1b replicon in Huh 7 cells (assay: HCV replicon assay, luciferase enzyme activity readout). Conditions: Hepatitis C virus, 72 h incubation, average EC50 range, read-out: Inhibition of HCV genotype 1b.
Format: cell-based
Experimental: Biological activity of the compounds of the invention was determined using an HCV replicon assay. The HCV 1b_Huh-Luc/Neo-ET cell line persistently expressing a bicistronic genotype 1b replicon in Huh 7 cells was obtained from ReBLikon GMBH. This cell line was used to test compound inhibition using luciferase enzyme activity readout as a measurement of compound inhibition of replicon levels.
On Day 1 (the day after plating cells), each compound is added in triplicate to the cells. Plates are incubated for 72 h prior to determining luciferase levels. Enzyme activity was measured using a Bright-Glo Kit (cat. number E2620) manufactured by Promega Corporation. The following equation was used to generate a percent control value for each compound. % Control=(Compound Luciferase Level/Control Luciferase Level)*100
The EC50 value was determined using GraphPad Prism and the following equation: Y=Bottom asymptote+(Top asymptote−Bottom asymptote)/(1+10^((Log EC50−X)*HillSlope))
EC50 values of compounds are determined several times in the replicon assay to generate average EC50 values. […]
COC(=O)N[C@H](C(=O)N1CCC[C@H]1c1ncc(-c2ccc3oc4cc(-c5cnc([C@@H]6CCCN6C(=O)[C@@H](NC(=O)OC)C(C)C)[nH]5)c(F)cc4c(=O)c3c2)[nH]1)C(C)C [Compound 22] was tested, and the EC50 was < 1 nM.
With CC[C@H](C)[C@H](NC(=O)OC)C(=O)N1CCC[C@H]1c1ncc(-c2cc3c(cc2F)Cc2cc(-c4cnc([C@@H]5CCCN5C(=O)[C@H](COC)NC(=O)OC)[nH]4)ccc2O3)[nH]1 [Compound 60] the EC50 was < 1 nM.
With COC(=O)N[C@H](C(=O)N1CCC[C@H]1c1ncc(-c2ccc3c(c2)Cc2cc(Cl)c(-c4cnc([C@@H]5CCCN5C(=O)[C@@H](NC(=O)OC)C(C)C)[nH]4)cc2O3)[nH]1)C(C)C [Compound 61] the EC50 was < 1 nM.
For COC(=O)N[C@H](C(=O)N1CCC[C@H]1c1ncc(-c2ccc3c(c2)Oc2ccc(-c4cnc([C@@H]5CCCN5C(=O)[C@@H](NC(=O)OC)C(C)C)[nH]4)cc2C32CC2)[nH]1)C(C)C [Compound 26], the EC50 was < 1 nM.
In the case of CC(C)(C)OC(=O)N1CCC[C@H]1c1ncc(-c2ccc3c(=O)c4cc(-c5cnc([C@@H]6CCCN6C(=O)OC(C)(C)C)[nH]5)ccc4oc3c2)[nH]1 [Compound 9], the EC50 is reported as 10 to 999 nM.
For COC(=O)N[C@H](C(=O)N1CCC[C@H]1c1ncc(-c2cc3c(cc2F)Cc2cc(-c4cnc([C@@H]5CCCN5C(=O)[C@@H](NC(=O)OC)[C@@H](C)OC)[nH]4)ccc2O3)[nH]1)C(C)C [Compound 29], the EC50 was < 1 nM.
In the case of COC(=O)N[C@@H](C)C(=O)N1CCC[C@H]1c1ncc(-c2ccc3oc4cc(-c5cnc([C@@H]6CCCN6C(=O)[C@@H](NC(=O)OC)C(C)C)[nH]5)ccc4c(=O)c3c2)[nH]1 [Compound 20], the EC50 is reported as < 1 nM.
With COC(=O)N[C@H](C(=O)N1CCC[C@H]1c1ncc(-c2ccc3c(c2)Cc2cc(F)c(-c4cnc([C@@H]5CCCN5C(=O)[C@@H](NC(=O)OC)[C@@H](C)OC)[nH]4)cc2O3)[nH]1)C1CCOCC1 [Compound 42] the EC50 was < 1 nM.
COC(=O)N[C@H](C(=O)N1CCC[C@H]1c1ncc(-c2ccc3oc4cc(-c5cnc([C@@H]6CCCN6C(=O)[C@H](NC(=O)OC6CCOCC6)c6ccccc6)[nH]5)ccc4c(=O)c3c2)[nH]1)C(C)C [Compound 21] was tested, and the EC50 was < 1 nM.
For CC[C@H](C)[C@H](NC(=O)OC)C(=O)N1CCC[C@H]1c1ncc(-c2ccc3c(c2)Cc2cc(F)c(-c4cnc([C@@H]5CCCN5C(=O)[C@@H](NC(=O)OC)[C@@H](C)OC)[nH]4)cc2O3)[nH]1 [Compound 41], the EC50 was < 1 nM.
COC(=O)N[C@H](C(=O)N1CCC[C@H]1c1ncc(-c2ccc3c(c2)Oc2ccc(-c4cnc([C@@H]5CCCN5C(=O)[C@@H](NC(=O)OC)C(C)C)[nH]4)cc2O3)[nH]1)C(C)C [Compound 3] was tested, and the EC50 was < 1 nM.
In the case of CC[C@H](C)[C@H](NC(=O)OC)C(=O)N1CCC[C@H]1c1ncc(-c2ccc3c(c2)Cc2cc(F)c(-c4cnc([C@@H]5CCCN5C(=O)[C@@H](NC(=O)OC)[C@@H](C)CC)[nH]4)cc2O3)[nH]1 [Compound 53], the EC50 is reported as < 1 nM.
COC(=O)N[C@H](C(=O)N1CCC[C@H]1c1ncc(-c2cc3oc4ccc(-c5cnc([C@@H]6CCCN6C(=O)[C@@H](NC(=O)OC)C6CCOCC6)[nH]5)cc4c(=O)c3cc2F)[nH]1)C(C)C [Compound 28] was tested, and the EC50 was < 1 nM.
In the case of COC(=O)N[C@@H](C(=O)N1CCC[C@H]1c1ncc(-c2ccc3c(c2)Cc2cc(-c4cnc([C@@H]5CCCN5C(=O)[C@H](NC(=O)OC)c5ccccc5)[nH]4)ccc2O3)[nH]1)c1ccccc1 [Compound 5], the EC50 is reported as < 1 nM.
COC(=O)N[C@H](C(=O)N1CSC[C@H]1c1ncc(-c2ccc3c(c2)Oc2ccc(-c4cnc([C@@H]5CSCN5C(=O)[C@@H](NC(=O)OC)C5CCCC5)[nH]4)cc2O3)[nH]1)C1CCCC1 [Compound 66] was tested, and the EC50 was < 1 nM.
For COC[C@H](NC(=O)OC)C(=O)N1CCC[C@H]1c1ncc(-c2ccc3c(c2)Cc2cc(F)c(-c4cnc([C@@H]5CCCN5C(=O)[C@@H](NC(=O)OC)[C@@H](C)OC)[nH]4)cc2O3)[nH]1 [Compound 43], the EC50 was < 1 nM.
In the case of COC(=O)N[C@@H](C(=O)N1CSC[C@H]1c1ncc(-c2ccc3c(c2)Oc2ccc(-c4cnc([C@@H]5CSCN5C(=O)[C@H](NC(=O)OC)c5ccccc5)[nH]4)cc2O3)[nH]1)c1ccccc1 [Compound 37], the EC50 is reported as < 1 nM.
In the case of COC(=O)N[C@@H](C(=O)N1CCC[C@H]1c1ncc(-c2ccc3oc4cc(-c5cnc([C@@H]6CCCN6C(=O)[C@H](NC(=O)OC)c6ccccc6)[nH]5)c(Cl)cc4c(=O)c3c2)[nH]1)c1ccccc1 [Compound 58], the EC50 is reported as < 1 nM.
In the case of COC(=O)N[C@H](C(=O)N1CCC[C@H]1c1ncc(-c2ccc3nc4cc(-c5cnc([C@@H]6CCCN6C(=O)[C@@H](NC(=O)OC)C(C)C)[nH]5)ccc4nc3c2)[nH]1)C(C)C [Compound 1], the EC50 is reported as < 1 nM.
COC(=O)N[C@H](C(=O)N1CCC[C@H]1c1ncc(-c2ccc3oc4cc(-c5cnc([C@@H]6CCCN6C(=O)[C@@H](NC(=O)OC)C6CCOCC6)[nH]5)ccc4c(=O)c3c2)[nH]1)C(C)C [Compound 17] was tested, and the EC50 was < 1 nM.
COC(=O)N[C@H](C(=O)N1CCC[C@H]1c1ncc(-c2ccc3c(c2)Oc2ccc(-c4cnc([C@@H]5CCCN5C(=O)[C@@H](NC(=O)OC)C(C)C)[nH]4)cc2C(=O)N3)[nH]1)C(C)C [Compound 14] was tested, and the EC50 was 10 to 999 nM.
For COC(=O)N[C@H](C(=O)N1CCC[C@H]1c1ncc(-c2ccc3c(=O)c4cc(-c5cnc([C@@H]6CCCN6C(=O)[C@@H](NC(=O)OC)C6CCOCC6)[nH]5)ccc4oc3c2)[nH]1)C(C)C [Compound 16], the EC50 was < 1 nM.
COC(=O)N[C@H](C(=O)N1CCC[C@H]1c1ncc(-c2ccc3c(c2)Oc2ccc(-c4cnc([C@@H]5CCCN5C(=O)[C@@H](NC(=O)OC)C5CCCC5)[nH]4)cc2O3)[nH]1)C1CCCC1 [Compound 33] was tested, and the EC50 was < 1 nM.
COC(=O)N[C@H](C(=O)N1CCC[C@H]1c1ncc(-c2ccc3c(c2)CCc2ccc(-c4cnc([C@@H]5CCCN5C(=O)[C@@H](NC(=O)OC)C(C)C)[nH]4)cc2O3)[nH]1)C(C)C [Compound 12] was tested, and the EC50 was < 1 nM.
CC[C@H](C)[C@H](NC(=O)OC)C(=O)N1CCC[C@H]1c1ncc(-c2ccc3oc4cc(-c5cnc([C@@H]6CCCN6C(=O)[C@@H](NC(=O)OC)[C@@H](C)CC)[nH]5)c(Cl)cc4c(=O)c3c2)[nH]1 [Compound 51] was tested, and the EC50 was < 1 nM.
For COC(=O)N[C@@H](C(=O)N[C@@H](C)c1ncc(-c2ccc3c(c2)Oc2ccc(-c4cnc([C@H](C)NC(=O)[C@H](NC(=O)OC)c5ccccc5)[nH]4)cc2O3)[nH]1)c1ccccc1 [Compound 38], the EC50 was < 1 nM.
In the case of COC[C@H](NC(=O)OC)C(=O)N1CCC[C@H]1c1ncc(-c2ccc3c(c2)Cc2cc(F)c(-c4cnc([C@@H]5CCCN5C(=O)[C@@H](NC(=O)OC)C(C)C)[nH]4)cc2O3)[nH]1 [Compound 45], the EC50 is reported as < 1 nM.
In the case of COC(=O)N[C@H](C(=O)N1CCC[C@H]1c1ncc(-c2ccc3oc4cc(-c5cnc([C@@H]6CCCN6C(=O)[C@@H](NC(=O)OC)[C@@H](C)OC)[nH]5)c(Cl)cc4c(=O)c3c2)[nH]1)[C@@H](C)OC [Compound 50], the EC50 is reported as < 1 nM.
For CC[C@H](C)[C@H](NC(=O)OC)C(=O)N1CSC[C@H]1c1ncc(-c2ccc3c(c2)Oc2ccc(-c4cnc([C@@H]5CSCN5C(=O)[C@@H](NC(=O)OC)[C@@H](C)CC)[nH]4)cc2O3)[nH]1 [Compound 67], the EC50 was < 1 nM.
In the case of COC(=O)N[C@H](C(=O)N1CCC[C@H]1c1ncc(-c2ccc3c(c2)Oc2ccc(-c4cnc([C@@H]5CCCN5C(=O)[C@@H](NC(=O)OC)[C@@H](C)OC)[nH]4)cc2O3)[nH]1)[C@@H](C)OC [Compound 34], the EC50 is reported as < 1 nM.
For COC(=O)N[C@H](C(=O)N1CCC[C@H]1c1ncc(-c2ccc3c(c2)Cc2ccc(-c4cnc([C@@H]5CCCN5C(=O)[C@@H](NC(=O)OC)[C@@H](C)OC)[nH]4)cc2O3)[nH]1)[C@@H](C)OC [Compound 30], the EC50 was < 1 nM.
For COC(=O)N[C@H](C(=O)N1CCC[C@H]1c1ncc(-c2ccc3c(c2)CCc2cc(-c4cnc([C@@H]5CCCN5C(=O)[C@@H](NC(=O)OC)C(C)C)[nH]4)ccc2O3)[nH]1)C(C)C [Compound 7], the EC50 was < 1 nM.
In the case of COC(=O)N[C@H](C(=O)N1CCC[C@H]1c1ncc(-c2ccc3c(=O)c4cc(-c5cnc([C@@H]6CCCN6C(=O)[C@H](NC(=O)OC6CCOCC6)c6ccccc6)[nH]5)ccc4oc3c2)[nH]1)C(C)C [Compound 19], the EC50 is reported as < 1 nM.
In the case of COC(=O)N[C@H](C(=O)N1CCC[C@H]1c1ncc(-c2ccc3oc4cc(-c5cnc([C@@H]6CCCN6C(=O)[C@@H](NC(=O)OC)C6CCOCC6)[nH]5)c(F)cc4c(=O)c3c2)[nH]1)C1CCOCC1 [Compound 23], the EC50 is reported as < 1 nM.
CC[C@H](C)[C@H](NC(=O)OC)C(=O)N1CCC[C@H]1c1ncc(-c2cc3c(cc2F)Cc2cc(-c4cnc([C@@H]5CCCN5C(=O)[C@@H](NC(=O)OC)[C@@H](C)OC)[nH]4)ccc2O3)[nH]1 [Compound 54] was tested, and the EC50 was < 1 nM.
For COC(=O)N[C@H](C(=O)N1CCC[C@H]1c1ncc(-c2ccc3oc4cc(-c5cnc([C@@H]6CCCN6C(=O)[C@@H](NC(=O)OC)C6CCOCC6)[nH]5)c(Cl)cc4c(=O)c3c2)[nH]1)C1CCOCC1 [Compound 52], the EC50 was < 1 nM.
With COC(=O)N[C@H](C(=O)N1CCC[C@H]1c1ncc(-c2cc3c(cc2F)Cc2cc(-c4cnc([C@@H]5CCCN5C(=O)[C@@H](NC(=O)OC)C5CCOCC5)[nH]4)ccc2O3)[nH]1)C(C)C [Compound 44] the EC50 was < 1 nM.
In the case of COC(=O)N[C@H](C(=O)N1CCC[C@H]1c1ncc(-c2ccc3oc4cc(-c5cnc([C@@H]6CCCN6C(=O)[C@@H](NC(=O)OC)C(C)C)[nH]5)c(Cl)cc4c(=O)c3c2)[nH]1)C(C)C [Compound 49], the EC50 is reported as < 1 nM.
COC(=O)N[C@H](C(=O)N1CCC[C@H]1c1ncc(-c2ccc3oc4cc(-c5cnc([C@@H]6CCCN6C(=O)[C@H](NC(=O)OC)c6ccccc6)[nH]5)ccc4c(=O)c3c2)[nH]1)C(C)C [Compound 18] was tested, and the EC50 was < 1 nM.
